Measured values: patent US9353082B2, “Pharmaceutical compounds” (BIAL—PORTELA & CA, S.A., priority 2008, dated 2016)

Columns and labels:
[1] = target: T1, FAAH (Mus musculus, UniProt O08914); test: In vivo FAAH inhibition after oral dosing, remaining activity in brain homogenate (BRh, central nervous tissue); set-up: species or system NMRI mice; settings: brain homogenate
T1 construct: A fragment of liver, left lung lobe and brain without cerebellum were removed; from tissue; host or cells: male NMRI mice; brain (without cerebellum) and liver homogenates
T1 sequence (O08914 1-579): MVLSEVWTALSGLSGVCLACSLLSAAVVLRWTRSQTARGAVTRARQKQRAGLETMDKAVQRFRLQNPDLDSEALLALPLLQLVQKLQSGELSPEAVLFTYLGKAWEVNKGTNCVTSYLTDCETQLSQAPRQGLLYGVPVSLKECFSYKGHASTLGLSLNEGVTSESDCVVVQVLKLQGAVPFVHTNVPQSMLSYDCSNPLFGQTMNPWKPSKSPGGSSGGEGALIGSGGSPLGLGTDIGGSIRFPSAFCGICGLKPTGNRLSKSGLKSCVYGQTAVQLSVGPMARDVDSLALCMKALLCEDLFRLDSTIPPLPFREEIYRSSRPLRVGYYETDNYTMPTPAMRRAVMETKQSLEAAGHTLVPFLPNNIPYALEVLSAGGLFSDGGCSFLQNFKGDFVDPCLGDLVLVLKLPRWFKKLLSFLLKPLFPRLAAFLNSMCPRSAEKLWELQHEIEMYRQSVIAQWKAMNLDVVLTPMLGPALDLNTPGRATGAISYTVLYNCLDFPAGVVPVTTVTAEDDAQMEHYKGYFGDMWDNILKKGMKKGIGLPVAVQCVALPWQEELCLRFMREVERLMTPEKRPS
Summary of the method: (§1)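 Male NMRI mice, fasted overnight, got 30 or 3 mg/kg compound orally (0.5% CMC suspension or water) and were compared with vehicle controls. Brain (no cerebellum) and liver homogenates were incubated with 2 μM AEA plus 5 nM 3H-AEA at 37 °C, 10 min for brain and 7 min for liver. Remaining FAAH activity is % of vehicle after blank subtraction.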

[2] = target: T1, FAAH; test: In vivo FAAH inhibition after oral dosing, remaining activity in liver homogenate (LVh, peripheral tissue); set-up: species or system NMRI mice; settings: liver homogenate
Summary of the method: as §1

[3] = target: T2, FAAH (Rattus norvegicus, UniProt P97612); test: In vitro FAAH activity in rat brain membranes, 3H-AEA substrate, % of control; format: biochemical, Wistar rats; settings: low value = strong inhibitor; for In Vitro FAAH activity, 100 nM: 100 nM test compound
T2 construct: Frozen brains (without cerebellum) from Wistar rats were used; from tissue; host or cells: Wistar rat brain (without cerebellum), washed membrane pellets
T2 sequence (P97612 1-579): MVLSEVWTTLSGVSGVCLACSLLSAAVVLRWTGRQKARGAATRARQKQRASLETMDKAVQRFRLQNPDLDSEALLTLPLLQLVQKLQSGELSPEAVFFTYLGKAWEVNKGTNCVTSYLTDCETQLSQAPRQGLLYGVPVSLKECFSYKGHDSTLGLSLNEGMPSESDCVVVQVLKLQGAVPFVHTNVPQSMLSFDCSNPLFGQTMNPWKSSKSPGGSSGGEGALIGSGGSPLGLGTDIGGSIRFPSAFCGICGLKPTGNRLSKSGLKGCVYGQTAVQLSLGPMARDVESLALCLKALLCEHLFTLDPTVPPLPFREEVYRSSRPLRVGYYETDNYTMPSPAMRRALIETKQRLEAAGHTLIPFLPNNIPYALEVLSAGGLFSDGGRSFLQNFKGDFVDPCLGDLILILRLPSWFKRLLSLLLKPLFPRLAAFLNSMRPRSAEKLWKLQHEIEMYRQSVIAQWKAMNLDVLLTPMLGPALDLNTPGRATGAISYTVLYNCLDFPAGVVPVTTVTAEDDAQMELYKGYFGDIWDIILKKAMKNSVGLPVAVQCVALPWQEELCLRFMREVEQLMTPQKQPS
Summary of the method: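 Wistar rat brain membranes (5 μg protein) preincubated 15 min at 37 °C with compound at 10 μM or 0.1 μM (0.1% DMSO), then 2 μM AEA including 3H-AEA with 0.1% BSA, Tris pH 7.6, 10 min. 3H-ethanolamine counted after charcoal stop; % of no-compound control after blank subtraction.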

Row | Compound | In Vivo BRh 30 mg/kg 1 h, remaining FAAH activity [1] | In Vivo LVh 30 mg/kg 1 h, remaining FAAH activity [2] | In Vitro FAAH activity, 100 nM [3] | In Vivo BRh 3 mg/kg 8 h, remaining FAAH activity [1] | In Vivo LVh 3 mg/kg 8 h, remaining FAAH activity [2] | In Vitro FAAH activity, 10 uM ([3]; 10 uM test compound)
1 | CN(Cc1ccccc1)C(=O)n1nnc2ccccc21 [Compound 53, N-benzyl-N-methyl-1H-benzo[d][1,2,3]triazole-1-carboxamide] | 1.4 % of control | 6.3 % of control | 0 % of control | – | – | –
2 | O=C(N1CCC2(CC1)OCCO2)n1nnc2ccccc21 [Compound 55, 1H-benzo[d][1,2,3]triazol-1-yl(1,4-dioxa-8-azaspiro[4.5]dec-8-yl)methanone] | 2.2 % of control | 2.5 % of control | 0.2 % of control | 42.6 % of control | 37.8 % of control | –
3 | CN(C(=O)n1nnc2ccccc21)C1CCCCC1 [Compound 58, N-cyclohexyl-N-methyl-1H-benzo[d][1,2,3]triazole-1-carboxamide] | 0.3 % of control | 0.9 % of control | 1 % of control | 0.5 % of control | 0.3 % of control | –
4 | O=C(NCc1ccccc1)n1nnc2ccccc21 [Compound 61, N-benzyl-1H-benzo[d][1,2,3]triazole-1-carboxamide] | 87.5 % of control | 83.9 % of control | 2.2 % of control | – | – | –
5 | CN(C(=O)n1nnc2ccccc21)c1ccc(Cl)cc1 [Compound 63, N-(4-chlorophenyl)-N-methyl-1H-benzo[d][1,2,3]triazole-1-carboxamide] | 57 % of control | 49.7 % of control | 12.6 % of control | – | – | –
6 | CN(C(=O)n1nnc2ccccc21)c1ccc(F)cc1F [Compound 70, N-(2,4-difluorophenyl)-N-methyl-1H-benzo[d][1,2,3]triazole-1-carboxamide] | 52 % of control | 42.5 % of control | 1.9 % of control | – | – | –
7 | CC1(C)COCN1C(=O)n1nnc2ccccc21 [Compound 71, (1H-benzo[d][1,2,3]triazol-1-yl)(4,4-dimethyloxazolidin-3-yl)methanone] | 0.3 % of control | 2.2 % of control | 2.3 % of control | 1.8 % of control | 2.5 % of control | 0.1 % of control
8 | CCCCN(C)C(=O)n1nnc2ccccc21 [Compound 75, N-butyl-N-methyl-1H-benzo[d][1,2,3]triazole-1-carboxamide] | 0.4 % of control | 2.7 % of control | 0 % of control | – | – | –
9 | O=C(N1CCC(Cc2ccccc2)CC1)n1cnc(-c2ccc(F)cc2F)n1 [Compound 79, (4-benzylpiperidin-1-yl)(3-(2,4-difluorophenyl)-1H-1,2,4-triazol-1-yl)methanone] | 10.3 % of control | 9.8 % of control | 0.8 % of control | 70 % of control | 45.2 % of control | –
10 | O=C(NC1CCCCC1)n1nnc2ccccc21 [Compound 87, N-cyclohexyl-1H-benzo[d][1,2,3]triazole-1-carboxamide] | – | – | 0 % of control | 3.4 % of control | 4 % of control | –
11 | Cc1ccc(OC2CCN(C(=O)n3nnc4ccccc43)CC2)cc1 [Compound 99, (1H-benzo[d][1,2,3]triazol-1-yl)(4-(p-tolyloxy)piperidin-1-yl)methanone] | – | – | 0.2 % of control | 99.1 % of control | 71.4 % of control | –
12 | O=C(N1CCC(CCc2ccccc2)CC1)n1nnc2ccccc21 [Compound 100, (1H-benzo[d][1,2,3]triazol-1-yl)(4-phenethylpiperidin-1-yl)methanone] | – | – | 0.2 % of control | 68.1 % of control | 40.5 % of control | –
13 | O=C(N1CCC(CCCc2ccccc2)CC1)n1nnc2ccccc21 [Compound 110, (1H-benzo[d][1,2,3]triazol-1-yl)(4-(3-phenylpropyl)piperidin-1-yl)methanone] | – | – | 0.1 % of control | 51.7 % of control | 10.2 % of control | –
14 | CN(C(=O)n1cnc(-c2ccc(C(N)=O)cc2)c1)c1ccccc1 [Compound 113, 4-(4-carbamoylphenyl)-N-methyl-N-phenyl-1H-imidazole-1-carboxamide] | – | – | 90.3 % of control | 84.1 % of control | 32.3 % of control | –
15 | O=C(N1CCC(c2ccncc2)CC1)n1nnc2ccccc21 [Compound 114, (1H-benzo[d][1,2,3]triazol-1-yl)(4-(pyridin-4-yl)piperidin-1-yl)methanone] | – | – | 0.1 % of control | 102.9 % of control | 109.9 % of control | –
16 | O=C(N1CCC(c2nc(-c3cccnc3)no2)CC1)n1nnc2ccccc21 [Compound 116, (1H-benzo[d][1,2,3]triazol-1-yl)(4-(3-(pyridin-3-yl)-1,2,4-oxadiazol-5-yl)piperidin-1-yl)methanone] | – | – | 0.5 % of control | 126.2 % of control | 113.2 % of control | –
17 | O=C(N1CCN(Cc2ccc(F)cc2)CC1)n1nnc2ccccc21 [Compound 121, (1H-benzo[d][1,2,3]triazol-1-yl)(4-(4-fluorobenzyl)piperazin-1-yl)methanone] | – | – | 0 % of control | 118.6 % of control | 116.1 % of control | –
18 | O=C(NC12CC3CC(CC(C3)C1)C2)n1nnc2ccccc21 [Compound 126, N-adamantyl-1H-benzo[d][1,2,3]triazole-1-carboxamide] | – | – | 0 % of control | 0.2 % of control | 2.2 % of control | –
19 | O=C(N1CCN(C2CCCCC2)CC1)n1nnc2ccccc21 [Compound 127, (1H-benzo[d][1,2,3]triazol-1-yl)(4-cyclohexylpiperazin-1-yl)methanone] | – | – | 0.1 % of control | 111.5 % of control | 107.3 % of control | –
20 | CN(CCCCCc1ccccc1)C(=O)n1nnc2ccccc21 [Compound 129, N-methyl-N-(5-phenylpentyl)-1H-benzo[d][1,2,3]triazole-1-carboxamide] | – | – | 0 % of control | 2.5 % of control | 2 % of control | –
